Reference: ChEMBL document CHEMBL1153692, “Inactivation of HIV-1 protease by a tripeptidyl epoxide” (Bioorg Med Chem Lett, 1992)

Assays:
[1] = molecular target: Human immunodeficiency virus type 1 protease (Human immunodeficiency virus 1) (UniProt Q72874); assay: Concentration of compound for half maximal inactivation rate on protease of Human immunodeficiency virus-1 (HIV-I) was determined
[2] = molecular target: Human immunodeficiency virus type 1 protease (Human immunodeficiency virus 1) (UniProt Q72874); assay: Maximal inactivation rate of compound on protease of Human immunodeficiency virus-1 (HIV-I) was determined
[3] = molecular target: Human immunodeficiency virus type 1 protease (Human immunodeficiency virus 1) (UniProt Q72874); assay: Maximal inactivation rate of compound on HIV protease
[4] = molecular target: Human immunodeficiency virus type 1 protease (Human immunodeficiency virus 1) (UniProt Q72874); assay: Half maximal inactivation rate of compound on HIV protease

## CC(C)C[C@@H]1O[C@@H]1[C@H](Cc1ccccc1)NC(=O)C(C)NC(Cc1ccccc1)C(=O)C(=O)OCc1ccccc1 (some centres undefined)
[1]
  K: 20 µM
[2]
  K: 0.31 min⁻¹

## O=[N+]([O-])c1ccc(OCC2CO2)cc1 (centres undefined)
[3]
  K: 0.004 min⁻¹
[4]
  K: 11 mM
